{
  "source": "patent US20100311674A1",
  "about": "“PHARMACEUTICAL COMPOSITIONS WITH A MECHANISM OF MULTI-TARGET RECEPTOR RETROACTION FOR TREATING DEPRESSION” (Yu-Fen Chi, priority 2007, published 2010)",
  "assay_type_in_all_cases": "in vivo",
  "key": {"ICR mice [1]": {"tested_on": "ICR mice", "experiment": "Mouse tail-hanging experiment (Experiment 3)", "experimental": "3.1 Experimental animals: ICR mice, male, 22.0±2 g of body weight, secondary, are provided by the Experimental Animal Science Department of Capital Medical University, Beijing. 3.2 Experiment pharmaceuticals: The pharmaceutical of Embodiment 2 is provided by Beijing Wormer Biotech. […] High dose of Embodiment 2 (80 mg/kg/d); 2. middle dose of Embodiment 2 (40 mg/kg/d); and 3. low dose of Embodiment 2 (20 mg/kg/d). 3.5.1 Group division and administration of drug: The mice are grouped randomly, and 10 mice are in each group. 1. High dose of Embodiment 2 (80 mg/kg, P.O., administered for 7 days); 2. middle dose of Embodiment 2 (40 mg/kg, P.O., administered for 7 days); 3. low dose of Embodiment 2 (20 mg/kg, P.O., administered for 7 days); 4. […] After 1 hour of the last administration of drug, the mouse tail-hanging experiment is proceeded. 3.5.2 Experimental method: The mouse's tail (1 cm to the tail end) is taped on the wood strip higher than the platform for 5 cm and hung up for 6 minutes. The time of non-movement of the mouse for the last 5 minutes is recorded. 3.5.3 Statistic calculation: The experimental data are represented as X±SD, and the experimental result is calculated as ANOVA by SPSS 11.5 statistic software."}, "ICR mice [2]": {"tested_on": "ICR mice", "experiment": "Mouse swimming by compulsion experiment (Experiment 10)", "experimental": "10.1 Experiment pharmaceuticals: The pharmaceutical of Embodiment 5 is provided by Beijing Wonner Biotech. […] Above-mentioned pharmaceuticals are prepared with physiological saline for feeding into the stomach. 10.2 Experimental animals: ICR mice, male, 20.0±1 g of body weight, secondary, are provided by the Experimental Animal Science Department of Capital Medical University, Beijing. The quality certificate number of mice is SCXK (JING) 2006-2008. 10.4 Experimental method: The mouse group and the administration of drugs are like the mouse tail-hanging experiment. The experiment is proceeded in tested mouse in each group after 1 hour of the administration of drug. The mouse is trained to swim for 15 minutes before the experiment and on the eighth day. After 24 hours, the experiment is performed. The mouse is placed in the glass tank having 10 cm of the water depth, 14 cm of the diameter and at 25° C. of the water temperature. The accumulative time of non-movement of the mouse in the water for the last 5 minutes is recorded. 10.5 Statistic calculation: The experimental data are represented as X+SD, and the experimental result is calculated as one-way ANOVA by SPSS 11.5 statistic software."}, "ICR mice [3]": {"tested_on": "ICR mice", "experiment": "Mouse tail-hanging experiment (Experiment 5)", "experimental": "5.1 Experimental animals: ICR mice, male, 22.0±2 g of body weight, secondary, are provided by the Experimental Animal Science Department of Capital Medical University, Beijing. 5.2 Experiment pharmaceuticals: The pharmaceutical of Embodiment 3 is provided by Beijing Wonner Biotech. […] High dose of Embodiment 3 (80 mg/kg/d); 2. middle dose of Embodiment 3 (40 mg/kg/d); and 3. low dose of Embodiment 3 (20 mg/kg/d). 5.5.1 Group division and administration of drug: The mice are grouped randomly, and 10 mice are in each group. 1. High dose of Embodiment 3 (80 mg/kg, P.O., administered for 7 days); 2. middle dose of Embodiment 3 (40 mg/kg, P.O., administered for 7 days); 3. low dose of Embodiment 3 (20 mg/kg, P.O., administered for 7 days); 4. […] After 1 hour of the last administration of drug, the mouse tail-hanging experiment is proceeded. 5.5.2 Experimental method: The mouse's tail (1 cm to the tail end) is taped on the wood strip higher than the platform for 5 cm and hung up for 6 minutes. The time of non-movement of the mouse for the last 5 minutes is recorded. 5.5.3 Statistic calculation: The experimental data are represented as X+SD, and the experimental result is calculated as ANOVA by SPSS 11.5 statistic software."}, "[4]": {"tested_on": "rat olfactory bulb lesion model", "experiment": "Step through test (passive avoidance) of the rat olfactory bulb lesion model (Experiment 7)", "conditions": "2 mg/kg/d into the stomach, 24 days", "experimental": "Olfactory bulb lesion model: Health Wistar male rats, secondary, 330±20 g of body weight, are purchased from Beijing Vital River Experimental Animal Technology Ltd. Co. (The quality certificate number: SCXK (JING) 2002-2003).\nThe above pharmaceuticals are prepared with 0.5% of sodium carboxymethylcellulose (CMC-Na) for feeding into the stomach. Benzylpenicillin sodium for injection is the product of North China Pharmaceutical Huasheng Co. Ltd. (Lot: S0511204), and norepinephrine (NE) and 5-hydrotryptamine (5-HT) standards are the products of Sigma Co. Other reagents are all marketed.\n7.4.1 Group division and administration of drug: The rats are grouped randomly into 6 groups. 1. […]\n7.5.2 Passive avoidance experiment (Step-through test): The step through box is configured by the light chamber and the dark chamber, and a channel is linked between the bright chamber and the dark chamber for mouse entrance and exit. […] The time that the rat enters into for the first time is recorded (electric-shocking latent period), and the time thereof is the learning record. […]\n7.6 Statistic calculation: The experimental data are represented as X+SD, and the experimental result is calculated as ANOVA by SPSS 11.5 statistic software."}, "[5]": {"conditions": "3 mg/kg P.O. 7 days, 1 h after last dose, last 5 of 6 min"}},
  "data": [
    {"smiles": "Fc1ccc([C@@H]2CCNC[C@H]2COc2ccc3c(c2)OCO3)cc1", "note": "[Paroxetine]", "values": [
      {"measurement": "Time of non-movement", "setting": "ICR mice [1]; [5]", "result": "75.33 ± 22.91", "unit": "s"},
      {"measurement": "Effect on time of non-movement after the mouse's tail is hung up (in words)", "setting": "ICR mice [1]; middle dose of Embodiment 2, Paroxetine, significantly different from control", "result": "decrease the time of non-movement"},
      {"measurement": "Time of non-movement", "setting": "ICR mice [2]; 3 mg/kg/d into the stomach, 1 h after dose, water 25° C., last 5 minutes", "result": "57.80 ± 38.07", "unit": "s"},
      {"measurement": "Effect on accumulative time of non-movement, swimming by compulsion (in words)", "setting": "ICR mice [2]; high, middle and low doses of Embodiment 5, Paroxetine", "result": "obviously decrease the accumulative time of non-movement"},
      {"measurement": "Time of non-movement", "setting": "ICR mice [3]; [5]", "result": "75.33 ± 22.91", "unit": "s"},
      {"measurement": "Effect on time of non-movement after the mouse's tail is hung up (in words)", "setting": "ICR mice [3]; high and middle doses of Embodiment 3, Paroxetine, significantly different from control", "result": "decrease the time of non-movement"},
      {"measurement": "Latent period of the 1st day", "setting": "[4]; learning record", "result": "181.87 ± 90.54", "unit": "s"},
      {"measurement": "Latent period of the 2nd day", "setting": "[4]; memory record", "result": "265.00 ± 65.39", "unit": "s"}
    ]}
  ]
}
